# Test results from the supplement of paper PMC10307832.
# Legend:
# Experiment in all cases: relative viability (nuclei count vs DMSO), 5 days (fraction); higher = more cells survive
# A549 = tested on: A549
# Method in brief: (§1)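 Relative viability equals treated-well nuclei counts divided by vehicle-well nuclei counts. Counts came from 4× images of lung cancer cell lines grown in 1536-well plates for 5 days after pin-tool dosing on the day after seeding. Dosing used one drug alone or a fixed anchor-drug dose plus five library-drug doses (not always all listed) in √10 steps, and values are medians of duplicate plates.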
# HCC-44 = tested on: HCC-44
# Method in brief: as §1
# Calu-6 = tested on: Calu-6
# Method in brief: as §1
# NCI-H1703 = tested on: NCI-H1703
# Method in brief: as §1
# NCI-H1437 = tested on: NCI-H1437
# Method in brief: as §1
# NCI-H1299 = tested on: NCI-H1299
# Method in brief: as §1
# EBC-1 = tested on: EBC-1
# Method in brief: as §1
# IA-LM = tested on: IA-LM
# Method in brief: as §1
# HCC-366 = tested on: HCC-366
# Method in brief: as §1
smiles,measurement,setting,value
Oc1nc(-c2ccc(C(F)(F)F)cc2)nc2c1CSCC2 [XAV939] + C[C@@H](Oc1cc(-c2cnn(C3CCNCC3)c2)cnc1N)c1c(Cl)ccc(F)c1Cl [Crizotinib] (partner 1 µM),relative viability,A549; first compound 0.08 µM,1.07
same,relative viability,A549; first compound 0.253 µM,0.713
same,relative viability,A549; first compound 0.8 µM,0.693
same,relative viability,A549; first compound 2.53 µM,0.633
same,relative viability,HCC-44; first compound 0.08 µM,0.785
same,relative viability,HCC-44; first compound 0.253 µM,0.796
same,relative viability,HCC-44; first compound 0.8 µM,0.79
same,relative viability,HCC-44; first compound 2.53 µM,0.75
same,relative viability,Calu-6; first compound 0.08 µM,0.822
same,relative viability,Calu-6; first compound 0.253 µM,0.719
same,relative viability,Calu-6; first compound 0.8 µM,0.7
same,relative viability,Calu-6; first compound 2.53 µM,0.758
same,relative viability,NCI-H1703; first compound 0.08 µM,0.787
same,relative viability,NCI-H1703; first compound 0.253 µM,0.621
same,relative viability,NCI-H1703; first compound 0.8 µM,0.77
same,relative viability,NCI-H1703; first compound 2.53 µM,0.583
same,relative viability,NCI-H1437; first compound 0.08 µM,1.03
same,relative viability,NCI-H1437; first compound 0.253 µM,0.915
same,relative viability,NCI-H1437; first compound 0.8 µM,0.947
same,relative viability,NCI-H1437; first compound 2.53 µM,0.788
same,relative viability,NCI-H1299; first compound 0.08 µM,0.94
same,relative viability,NCI-H1299; first compound 0.253 µM,0.978
same,relative viability,NCI-H1299; first compound 0.8 µM,0.956
same,relative viability,NCI-H1299; first compound 2.53 µM,0.958
same,relative viability,EBC-1; first compound 0.08 µM,0.213
same,relative viability,EBC-1; first compound 0.253 µM,0.223
same,relative viability,EBC-1; first compound 0.8 µM,0.165
same,relative viability,EBC-1; first compound 2.53 µM,0.182
same,relative viability,IA-LM; first compound 0.08 µM,0.792
same,relative viability,IA-LM; first compound 0.253 µM,0.876
same,relative viability,IA-LM; first compound 0.8 µM,0.398
same,relative viability,IA-LM; first compound 2.53 µM,0.444
same,relative viability,HCC-366; first compound 0.08 µM,0.66
same,relative viability,HCC-366; first compound 0.253 µM,0.56
same,relative viability,HCC-366; first compound 0.8 µM,0.52
same,relative viability,HCC-366; first compound 2.53 µM,0.466
Oc1nc(-c2ccc(C(F)(F)F)cc2)nc2c1CSCC2 [XAV939] + C[C@]1(O)C[C@@H](c2nc(-c3ccc4ccc(-c5ccccc5)nc4c3)c3c(N)nccn32)C1 [Linsitinib] (partner 1 µM),relative viability,A549; first compound 0.08 µM,0.696
same,relative viability,A549; first compound 0.253 µM,0.526
same,relative viability,A549; first compound 0.8 µM,0.486
same,relative viability,A549; first compound 2.53 µM,0.51
same,relative viability,HCC-44; first compound 0.08 µM,0.789
same,relative viability,HCC-44; first compound 0.253 µM,0.673
same,relative viability,HCC-44; first compound 0.8 µM,0.659
same,relative viability,HCC-44; first compound 2.53 µM,0.651
same,relative viability,Calu-6; first compound 0.08 µM,0.981
same,relative viability,Calu-6; first compound 0.253 µM,1.04
same,relative viability,Calu-6; first compound 0.8 µM,0.953
same,relative viability,Calu-6; first compound 2.53 µM,0.856
same,relative viability,NCI-H1703; first compound 0.08 µM,1.31
same,relative viability,NCI-H1703; first compound 0.253 µM,1.02
same,relative viability,NCI-H1703; first compound 0.8 µM,0.969
same,relative viability,NCI-H1703; first compound 2.53 µM,0.584
same,relative viability,NCI-H1437; first compound 0.08 µM,1.21
same,relative viability,NCI-H1437; first compound 0.253 µM,0.878
same,relative viability,NCI-H1437; first compound 0.8 µM,0.873
same,relative viability,NCI-H1437; first compound 2.53 µM,0.477
same,relative viability,NCI-H1299; first compound 0.08 µM,1.03
same,relative viability,NCI-H1299; first compound 0.253 µM,0.878
same,relative viability,NCI-H1299; first compound 0.8 µM,0.948
same,relative viability,NCI-H1299; first compound 2.53 µM,0.948
same,relative viability,EBC-1; first compound 0.08 µM,1.02
same,relative viability,EBC-1; first compound 0.253 µM,0.832
same,relative viability,EBC-1; first compound 0.8 µM,0.809
same,relative viability,EBC-1; first compound 2.53 µM,0.754
same,relative viability,IA-LM; first compound 0.08 µM,0.565
same,relative viability,IA-LM; first compound 0.253 µM,0.512
same,relative viability,IA-LM; first compound 0.8 µM,0.505
same,relative viability,IA-LM; first compound 2.53 µM,0.458
same,relative viability,HCC-366; first compound 0.08 µM,0.626
same,relative viability,HCC-366; first compound 0.253 µM,0.5
same,relative viability,HCC-366; first compound 0.8 µM,0.605
same,relative viability,HCC-366; first compound 2.53 µM,0.596
Oc1nc(-c2ccc(C(F)(F)F)cc2)nc2c1CSCC2 [XAV939] + Cc1nc(NC(=O)N2CCC[C@H]2C(N)=O)sc1-c1ccnc(C(C)(C)C(F)(F)F)c1 [Alpelisib] (partner 2 µM),relative viability,A549; first compound 0.08 µM,0.877
same,relative viability,A549; first compound 0.253 µM,0.371
same,relative viability,A549; first compound 0.8 µM,0.484
same,relative viability,A549; first compound 2.53 µM,0.524
same,relative viability,HCC-44; first compound 0.08 µM,0.953
same,relative viability,HCC-44; first compound 0.253 µM,0.675
same,relative viability,HCC-44; first compound 0.8 µM,0.775
same,relative viability,HCC-44; first compound 2.53 µM,0.737
same,relative viability,Calu-6; first compound 0.08 µM,1.08
same,relative viability,Calu-6; first compound 0.253 µM,0.887
same,relative viability,Calu-6; first compound 0.8 µM,0.919
same,relative viability,Calu-6; first compound 2.53 µM,0.948
same,relative viability,NCI-H1703; first compound 0.08 µM,0.397
same,relative viability,NCI-H1703; first compound 0.253 µM,0.301
same,relative viability,NCI-H1703; first compound 0.8 µM,0.307
same,relative viability,NCI-H1703; first compound 2.53 µM,0.324
same,relative viability,NCI-H1437; first compound 0.08 µM,1.03
same,relative viability,NCI-H1437; first compound 0.253 µM,0.709
same,relative viability,NCI-H1437; first compound 0.8 µM,0.97
same,relative viability,NCI-H1437; first compound 2.53 µM,0.715
same,relative viability,NCI-H1299; first compound 0.08 µM,1.08
same,relative viability,NCI-H1299; first compound 0.253 µM,1.04
same,relative viability,NCI-H1299; first compound 0.8 µM,1.09
same,relative viability,NCI-H1299; first compound 2.53 µM,1.11
same,relative viability,EBC-1; first compound 0.08 µM,0.874
same,relative viability,EBC-1; first compound 0.253 µM,0.71
same,relative viability,EBC-1; first compound 0.8 µM,0.716
same,relative viability,EBC-1; first compound 2.53 µM,0.726
same,relative viability,IA-LM; first compound 0.08 µM,0.77
same,relative viability,IA-LM; first compound 0.253 µM,0.693
same,relative viability,IA-LM; first compound 0.8 µM,0.705
same,relative viability,IA-LM; first compound 2.53 µM,0.557
same,relative viability,HCC-366; first compound 0.08 µM,0.535
same,relative viability,HCC-366; first compound 0.253 µM,0.308
same,relative viability,HCC-366; first compound 0.8 µM,0.446
same,relative viability,HCC-366; first compound 2.53 µM,0.389
